Measured values published in ChEMBL document CHEMBL1909046, “DrugMatrix in vitro pharmacology data”.

Columns and labels:
[1] = molecular target: Beta-3 adrenergic receptor (Homo sapiens, UniProt P13945); experiment: DRUGMATRIX: Adrenergic beta3 radioligand binding (ligand: [125I] Cyanopindolol); type: cell membranes, HEK293, Membrane; conditions: Not Active = under 50% inhibition at 10 µM
[2] = DRUGMATRIX: ATPase, Na+/K+ enzyme inhibition (substrate: ATP); type: tissue-based, Sus scrofa, Heart; conditions: Not Active = under 50% inhibition at 10 µM
[3] = molecular target: C-C chemokine receptor type 5 (Homo sapiens, UniProt P51681); type: cell membranes, Membrane; conditions: hek293; note: in other assays of this panel Not Active means under 50% inhibition at 10 µM
Sequence of C-C chemokine receptor type 5 (P51681 whole entry): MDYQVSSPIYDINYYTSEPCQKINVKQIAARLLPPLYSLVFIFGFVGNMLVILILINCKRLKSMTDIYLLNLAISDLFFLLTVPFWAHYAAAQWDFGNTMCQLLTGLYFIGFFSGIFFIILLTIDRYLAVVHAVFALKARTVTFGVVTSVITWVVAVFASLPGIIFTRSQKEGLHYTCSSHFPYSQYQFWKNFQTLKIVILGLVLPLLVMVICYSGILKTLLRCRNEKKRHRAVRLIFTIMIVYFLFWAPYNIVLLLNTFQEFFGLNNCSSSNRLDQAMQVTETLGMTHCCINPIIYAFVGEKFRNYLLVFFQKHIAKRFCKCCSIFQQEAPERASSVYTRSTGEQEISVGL

D(4) dopamine receptor = molecular target: T1, D(4) dopamine receptor (Homo sapiens, UniProt P21917); experiment: DRUGMATRIX: Dopamine D4.2 radioligand binding (ligand: [3H] Spiperone); type: cell membranes, CHO-K1, Membrane; conditions: Not Active = under 50% inhibition at 10 µM
T1 sequence (P21917 whole entry): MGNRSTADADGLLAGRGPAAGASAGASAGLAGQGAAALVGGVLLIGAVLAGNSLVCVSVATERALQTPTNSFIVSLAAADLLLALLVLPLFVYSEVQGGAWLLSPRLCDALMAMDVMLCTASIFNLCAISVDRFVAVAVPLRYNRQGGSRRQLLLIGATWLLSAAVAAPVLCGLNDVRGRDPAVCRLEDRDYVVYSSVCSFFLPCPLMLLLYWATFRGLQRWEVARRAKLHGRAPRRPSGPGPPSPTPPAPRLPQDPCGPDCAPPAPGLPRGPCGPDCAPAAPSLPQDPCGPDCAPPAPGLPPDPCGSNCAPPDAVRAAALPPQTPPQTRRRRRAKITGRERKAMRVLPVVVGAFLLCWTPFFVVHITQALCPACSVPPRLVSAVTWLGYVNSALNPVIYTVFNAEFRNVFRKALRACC

[4] = DRUGMATRIX: Glutamate, AMPA radioligand binding (ligand: [3H] AMPA); type: cell membranes, Rattus norvegicus, Wistar, Cerebral cortex, Membrane; conditions: Not Active = under 50% inhibition at 10 µM
[5] = DRUGMATRIX: Imidazoline I2, Central radioligand binding (ligand: [3H] Idazoxan); type: cell membranes, Rattus norvegicus, Wistar, Cerebral cortex, Membrane; conditions: Not Active = under 50% inhibition at 10 µM
Insulin receptor = Insulin receptor (Rattus norvegicus, UniProt P15127); type: cell membranes, Wistar, Liver, Membrane; note: in other assays of this panel Not Active means under 50% inhibition at 10 µM
Sequence of Insulin receptor (P15127 27-759 limits assumed): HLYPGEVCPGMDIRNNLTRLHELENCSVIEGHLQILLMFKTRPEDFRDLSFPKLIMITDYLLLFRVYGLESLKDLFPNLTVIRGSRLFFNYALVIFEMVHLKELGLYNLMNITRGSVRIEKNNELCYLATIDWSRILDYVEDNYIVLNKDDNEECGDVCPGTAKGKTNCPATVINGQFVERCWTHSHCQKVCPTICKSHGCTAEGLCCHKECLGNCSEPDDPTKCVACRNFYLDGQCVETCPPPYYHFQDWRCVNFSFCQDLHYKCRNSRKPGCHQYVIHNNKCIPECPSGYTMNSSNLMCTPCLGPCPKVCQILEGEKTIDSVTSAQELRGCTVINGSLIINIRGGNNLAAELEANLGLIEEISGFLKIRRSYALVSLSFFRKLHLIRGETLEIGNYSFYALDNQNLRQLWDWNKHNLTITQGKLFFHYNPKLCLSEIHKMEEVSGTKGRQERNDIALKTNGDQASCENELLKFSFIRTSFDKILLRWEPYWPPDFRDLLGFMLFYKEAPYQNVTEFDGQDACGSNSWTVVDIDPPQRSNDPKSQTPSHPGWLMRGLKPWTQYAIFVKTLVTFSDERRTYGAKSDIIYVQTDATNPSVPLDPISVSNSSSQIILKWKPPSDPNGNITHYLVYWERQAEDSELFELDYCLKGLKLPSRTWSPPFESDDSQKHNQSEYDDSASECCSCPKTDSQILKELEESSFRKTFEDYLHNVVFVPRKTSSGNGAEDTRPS
Sequence of Insulin receptor (P15127 764-1383 limits assumed): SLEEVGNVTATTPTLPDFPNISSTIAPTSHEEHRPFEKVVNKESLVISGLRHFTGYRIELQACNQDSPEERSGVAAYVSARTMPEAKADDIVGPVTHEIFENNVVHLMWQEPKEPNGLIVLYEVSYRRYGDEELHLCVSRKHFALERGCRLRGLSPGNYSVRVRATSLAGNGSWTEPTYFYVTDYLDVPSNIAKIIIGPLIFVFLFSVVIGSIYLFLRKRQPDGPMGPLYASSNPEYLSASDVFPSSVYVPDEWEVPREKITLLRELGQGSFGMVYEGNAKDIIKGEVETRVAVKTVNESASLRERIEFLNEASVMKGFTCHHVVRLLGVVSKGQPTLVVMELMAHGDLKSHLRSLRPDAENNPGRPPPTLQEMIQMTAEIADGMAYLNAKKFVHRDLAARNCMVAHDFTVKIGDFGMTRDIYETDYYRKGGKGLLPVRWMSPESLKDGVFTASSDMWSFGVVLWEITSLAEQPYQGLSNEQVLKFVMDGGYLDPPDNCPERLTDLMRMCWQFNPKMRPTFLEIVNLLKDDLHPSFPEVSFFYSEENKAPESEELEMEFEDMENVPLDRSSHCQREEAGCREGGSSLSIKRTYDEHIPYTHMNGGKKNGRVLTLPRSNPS

[6] = molecular target: T2, Angiotensin-converting enzyme (Oryctolagus cuniculus, UniProt P12822); experiment: biochemical; type: tissue-based, Lung;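 note: enzymatic inhibition of angiotensin-converting enzyme measured with FAPGG as the substrate; in other assays of this panel Not Active means under 50% inhibition at 10 µM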
T2 sequence (P12822 whole entry): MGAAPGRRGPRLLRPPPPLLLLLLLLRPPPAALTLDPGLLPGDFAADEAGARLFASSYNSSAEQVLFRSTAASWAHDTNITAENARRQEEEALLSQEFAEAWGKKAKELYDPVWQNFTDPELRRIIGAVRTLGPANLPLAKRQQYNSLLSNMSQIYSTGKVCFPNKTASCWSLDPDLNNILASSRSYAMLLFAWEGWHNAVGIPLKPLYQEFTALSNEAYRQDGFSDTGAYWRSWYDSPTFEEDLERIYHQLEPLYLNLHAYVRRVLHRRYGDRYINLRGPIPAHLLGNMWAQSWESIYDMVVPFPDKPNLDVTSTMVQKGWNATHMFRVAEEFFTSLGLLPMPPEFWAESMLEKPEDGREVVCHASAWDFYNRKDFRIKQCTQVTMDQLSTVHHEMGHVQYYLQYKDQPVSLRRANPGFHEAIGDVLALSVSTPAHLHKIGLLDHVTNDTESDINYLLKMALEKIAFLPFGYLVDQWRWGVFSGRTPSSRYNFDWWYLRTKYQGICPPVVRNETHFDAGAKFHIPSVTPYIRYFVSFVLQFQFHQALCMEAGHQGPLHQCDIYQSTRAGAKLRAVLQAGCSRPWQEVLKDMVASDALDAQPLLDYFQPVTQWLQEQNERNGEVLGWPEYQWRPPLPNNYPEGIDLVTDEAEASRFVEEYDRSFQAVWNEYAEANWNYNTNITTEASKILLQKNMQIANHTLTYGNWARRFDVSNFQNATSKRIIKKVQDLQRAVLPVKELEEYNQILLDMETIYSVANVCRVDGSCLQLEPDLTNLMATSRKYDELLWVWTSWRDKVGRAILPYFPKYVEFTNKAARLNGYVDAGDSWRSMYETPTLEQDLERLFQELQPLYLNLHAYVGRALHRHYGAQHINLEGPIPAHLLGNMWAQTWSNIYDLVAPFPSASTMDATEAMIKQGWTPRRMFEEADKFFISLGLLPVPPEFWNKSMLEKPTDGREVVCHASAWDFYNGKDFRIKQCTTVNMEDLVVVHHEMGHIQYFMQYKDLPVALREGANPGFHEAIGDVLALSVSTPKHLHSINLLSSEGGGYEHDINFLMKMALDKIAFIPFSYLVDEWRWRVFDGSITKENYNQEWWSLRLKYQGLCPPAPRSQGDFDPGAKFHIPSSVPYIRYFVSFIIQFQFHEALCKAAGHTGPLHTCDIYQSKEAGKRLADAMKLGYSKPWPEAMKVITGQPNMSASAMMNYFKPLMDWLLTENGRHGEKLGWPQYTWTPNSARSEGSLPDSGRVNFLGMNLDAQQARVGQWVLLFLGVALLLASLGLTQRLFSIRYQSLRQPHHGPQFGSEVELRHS

[7] = molecular target: Epidermal growth factor receptor (Homo sapiens, UniProt P00533); experiment: DRUGMATRIX: Protein Tyrosine Kinase, EGF Receptor enzyme inhibition (substrate: Poly(Glu:Tyr)); type: cell-based, Insect cells; conditions: Not Active = under 50% inhibition at 10 µM
Sequence of Epidermal growth factor receptor (P00533 whole entry): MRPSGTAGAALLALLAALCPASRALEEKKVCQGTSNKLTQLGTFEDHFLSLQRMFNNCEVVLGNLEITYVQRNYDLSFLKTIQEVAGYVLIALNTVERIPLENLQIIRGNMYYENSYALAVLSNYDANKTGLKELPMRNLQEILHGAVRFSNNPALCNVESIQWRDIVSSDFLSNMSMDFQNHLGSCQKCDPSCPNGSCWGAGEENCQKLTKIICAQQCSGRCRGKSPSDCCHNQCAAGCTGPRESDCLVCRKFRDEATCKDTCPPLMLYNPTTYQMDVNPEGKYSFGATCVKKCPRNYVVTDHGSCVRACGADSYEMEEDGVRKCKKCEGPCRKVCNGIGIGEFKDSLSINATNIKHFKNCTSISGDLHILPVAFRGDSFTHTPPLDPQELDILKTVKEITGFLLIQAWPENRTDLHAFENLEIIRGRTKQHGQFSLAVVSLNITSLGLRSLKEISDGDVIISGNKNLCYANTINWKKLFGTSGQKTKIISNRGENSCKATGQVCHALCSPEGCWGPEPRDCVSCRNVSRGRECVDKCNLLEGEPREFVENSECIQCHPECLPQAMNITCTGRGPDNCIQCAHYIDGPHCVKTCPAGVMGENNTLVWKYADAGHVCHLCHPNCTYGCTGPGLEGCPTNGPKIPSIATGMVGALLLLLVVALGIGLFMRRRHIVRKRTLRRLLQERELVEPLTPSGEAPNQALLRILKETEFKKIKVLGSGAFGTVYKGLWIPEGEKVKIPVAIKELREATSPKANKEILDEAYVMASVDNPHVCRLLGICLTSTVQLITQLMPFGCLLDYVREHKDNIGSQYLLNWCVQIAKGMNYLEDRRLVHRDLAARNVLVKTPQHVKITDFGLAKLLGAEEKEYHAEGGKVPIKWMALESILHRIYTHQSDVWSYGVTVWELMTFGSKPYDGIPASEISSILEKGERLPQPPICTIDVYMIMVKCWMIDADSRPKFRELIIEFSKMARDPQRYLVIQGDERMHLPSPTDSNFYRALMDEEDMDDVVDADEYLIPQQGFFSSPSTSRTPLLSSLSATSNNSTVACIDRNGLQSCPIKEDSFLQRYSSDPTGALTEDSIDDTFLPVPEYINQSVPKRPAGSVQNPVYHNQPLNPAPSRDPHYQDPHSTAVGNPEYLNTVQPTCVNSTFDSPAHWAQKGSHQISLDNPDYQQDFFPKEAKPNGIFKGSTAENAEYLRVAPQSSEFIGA

Cytochrome P450 2A6 = molecular target: T3, Cytochrome P450 2A6 (Homo sapiens, UniProt P11509); conditions: bti-tn-5b1-4; note: in other assays of this panel Not Active means under 50% inhibition at 10 µM
T3 sequence (P11509 whole entry): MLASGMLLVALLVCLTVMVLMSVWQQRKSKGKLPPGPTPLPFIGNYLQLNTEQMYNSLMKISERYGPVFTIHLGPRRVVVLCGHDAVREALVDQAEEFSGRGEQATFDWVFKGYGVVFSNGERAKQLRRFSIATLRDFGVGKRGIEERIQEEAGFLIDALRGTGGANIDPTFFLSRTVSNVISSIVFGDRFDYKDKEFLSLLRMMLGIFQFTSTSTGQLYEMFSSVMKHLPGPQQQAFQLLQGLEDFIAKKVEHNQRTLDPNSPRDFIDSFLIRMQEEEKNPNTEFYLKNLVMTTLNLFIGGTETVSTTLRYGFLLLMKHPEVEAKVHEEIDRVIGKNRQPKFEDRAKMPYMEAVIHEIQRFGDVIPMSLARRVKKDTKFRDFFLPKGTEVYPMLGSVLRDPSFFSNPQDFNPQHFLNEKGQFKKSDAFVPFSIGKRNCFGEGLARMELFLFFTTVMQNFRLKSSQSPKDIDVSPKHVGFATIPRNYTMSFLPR

Sequence of Beta-3 adrenergic receptor (P13945 whole entry): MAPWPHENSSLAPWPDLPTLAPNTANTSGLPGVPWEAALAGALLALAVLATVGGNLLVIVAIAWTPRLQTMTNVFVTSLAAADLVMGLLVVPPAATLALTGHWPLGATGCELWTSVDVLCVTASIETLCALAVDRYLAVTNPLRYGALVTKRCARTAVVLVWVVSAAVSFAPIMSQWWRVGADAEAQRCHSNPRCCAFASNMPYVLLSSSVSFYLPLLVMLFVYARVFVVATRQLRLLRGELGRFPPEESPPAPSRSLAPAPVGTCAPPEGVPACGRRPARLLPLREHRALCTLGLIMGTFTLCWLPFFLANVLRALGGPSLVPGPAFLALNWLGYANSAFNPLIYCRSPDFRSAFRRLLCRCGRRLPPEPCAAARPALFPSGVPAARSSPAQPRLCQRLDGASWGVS

SMILES | IC50 ([1]; hek293) | IC50 [2] | Ki [2] | IC50 [3] | IC50 (D(4) dopamine receptor; cho-k1) | IC50 [4] | Ki [4] | IC50 [5] | Ki [5] | IC50 (Insulin receptor) | IC50 [6] | IC50 ([7]; read-out: IC50) [µM] | IC50 (Cytochrome P450 2A6) | Ki (Cytochrome P450 2A6) | IC50 ([7]; insect cells) | other results
O=C1c2c(O)ccc(O)c2C(=O)c2c(NCCNCCO)ccc(NCCNCCO)c21 [MITOXANTRONE] | Not Active | Not Active | Not Active | Not Active | Not Active | Not Active | Not Active | Not Active | Not Active | Not Active | Not Active | 5.39 | – | – | – | –
CC(C)(O)c1ccccc1CC[C@@H](SCC1(CC(=O)O)CC1)c1cccc(/C=C/c2ccc3ccc(Cl)cc3n2)c1 [MONTELUKAST] | – | – | – | Not Active | Not Active | – | – | – | – | Not Active | Not Active | 3.2 | Not Active | Not Active | – | IC50 ([1]; read-out: IC50): 4.3 µM; Ki ([1]; read-out: Ki): 3.2 µM
COC(=O)C1=C(C)NC(C)=C(C(=O)OC)C1c1ccccc1[N+](=O)[O-] [NIFEDIPINE] | Not Active | Not Active | Not Active | Not Active | Not Active | Not Active | Not Active | Not Active | Not Active | Not Active | Not Active | – | – | – | Not Active | –
CN[C@@H]1[C@@H](O)[C@@H](O[C@@H]2[C@@H](O)[C@H](O[C@H]3OC(CN)=CC[C@H]3N)[C@@H](N)C[C@H]2N)OC[C@]1(C)O [SISOMICIN] | Not Active | Not Active | Not Active | Not Active | Not Active | Not Active | Not Active | Not Active | Not Active | Not Active | Not Active | – | – | – | Not Active | –
CSc1ccc2c(c1)N(CCC1CCCCN1C)c1ccccc1S2 (centres undefined) [THIORIDAZINE] | Not Active | – | – | Not Active | – | – | – | – | – | Not Active | Not Active | 2.95 | Not Active | Not Active | – | IC50 (D(4) dopamine receptor; read-out: IC50): 1.47 µM; Ki (D(4) dopamine receptor; read-out: Ki): 0.515 µM
COc1cccc(C2(O)CCCCC2CN(C)C)c1 (centres undefined) [TRAMADOL] | Not Active | – | – | Not Active | Not Active | – | – | – | – | Not Active | Not Active | – | Not Active | Not Active | Not Active | –
COC(=O)[C@@H]1[C@H]2C[C@H]3c4[nH]c5ccccc5c4CCN3C[C@@H]2CC[C@@H]1O [YOHIMBINE] | Not Active | Not Active | Not Active | Not Active | Not Active | Not Active | Not Active | – | – | Not Active | Not Active | – | – | – | Not Active | IC50 ([5]; read-out: IC50): 0.157 µM; Ki ([5]; read-out: Ki): 0.105 µM
